# Experiments:
# Experiment in all cases: KINOMEscan competition binding
# Conditions in all cases: compound 10.0 µM
# [1] = target: MAP3K5 (human) (UniProt Q99683)
# [2] = target: SGK110 (human) (UniProt P0C264)
# [3] = target: NEK2 (human) (UniProt P51955)
# [4] = target: MAP3K15 (human) (UniProt Q6ZN16)
# [5] = target: DAPK2 (human) (UniProt Q9UIK4)
# [6] = target: RPS6KB1 (human) (UniProt P23443)
# [7] = target: PAK2 (human) (UniProt Q13177)
# [8] = target: LATS2 (human) (UniProt Q9NRM7)
# [9] = target: LIMK1 (human) (UniProt P53667)
# Chain of LIMK1 (human) (P53667 whole entry, looked up): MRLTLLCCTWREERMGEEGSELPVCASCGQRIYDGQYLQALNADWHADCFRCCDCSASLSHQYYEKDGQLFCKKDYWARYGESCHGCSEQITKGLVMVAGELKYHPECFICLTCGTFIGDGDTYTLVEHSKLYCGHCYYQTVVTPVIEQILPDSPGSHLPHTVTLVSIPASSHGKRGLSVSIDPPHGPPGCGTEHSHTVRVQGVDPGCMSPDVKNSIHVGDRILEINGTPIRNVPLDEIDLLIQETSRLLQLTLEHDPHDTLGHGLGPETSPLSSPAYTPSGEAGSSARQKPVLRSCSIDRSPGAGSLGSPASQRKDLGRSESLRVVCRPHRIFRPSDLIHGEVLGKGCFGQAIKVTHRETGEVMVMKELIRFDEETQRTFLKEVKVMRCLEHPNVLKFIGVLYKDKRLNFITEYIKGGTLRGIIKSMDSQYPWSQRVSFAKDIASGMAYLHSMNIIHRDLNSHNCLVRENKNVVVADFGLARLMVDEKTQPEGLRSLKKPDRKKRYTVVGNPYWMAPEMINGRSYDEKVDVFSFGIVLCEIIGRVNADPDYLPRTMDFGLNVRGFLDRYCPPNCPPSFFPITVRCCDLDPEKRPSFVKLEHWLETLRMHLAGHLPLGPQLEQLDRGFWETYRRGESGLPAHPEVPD
# [10] = system: EGFR (human), P00533 [L858R]
# [11] = target: BMPR2 (human) (UniProt Q13873)
# [12] = target: EIF2AK1 (human) (UniProt Q9BQI3)
# Chain of EIF2AK1 (human) (Q9BQI3 whole entry, looked up): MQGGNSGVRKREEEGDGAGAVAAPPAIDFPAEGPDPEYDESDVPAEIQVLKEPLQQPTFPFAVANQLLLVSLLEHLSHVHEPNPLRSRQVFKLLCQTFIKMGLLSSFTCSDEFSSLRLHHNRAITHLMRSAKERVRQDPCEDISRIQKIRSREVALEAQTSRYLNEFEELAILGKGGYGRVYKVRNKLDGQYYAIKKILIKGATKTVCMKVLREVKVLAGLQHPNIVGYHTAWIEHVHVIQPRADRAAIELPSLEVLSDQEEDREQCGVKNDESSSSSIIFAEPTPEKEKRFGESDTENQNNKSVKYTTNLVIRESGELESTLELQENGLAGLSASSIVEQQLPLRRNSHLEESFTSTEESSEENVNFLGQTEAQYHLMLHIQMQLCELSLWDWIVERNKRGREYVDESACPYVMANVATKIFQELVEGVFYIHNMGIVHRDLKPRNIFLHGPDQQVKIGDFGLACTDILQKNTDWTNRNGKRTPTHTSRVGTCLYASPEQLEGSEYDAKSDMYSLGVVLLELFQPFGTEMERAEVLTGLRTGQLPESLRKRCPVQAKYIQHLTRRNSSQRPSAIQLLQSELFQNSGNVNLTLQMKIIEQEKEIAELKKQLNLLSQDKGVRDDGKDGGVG
# [13] = target: GSK3A (human) (UniProt P49840)
# [14] = target: STK11 (human) (UniProt Q15831)
# [15] = target: WEE1 (human) (UniProt P30291)
# [16] = target: NTRK3 (human) (UniProt Q16288)
# [17] = target: ERBB3 (human) (UniProt P21860)
# [18] = target: AKT3 (human) (UniProt Q9Y243)
# [19] = target: STK39 (human) (UniProt Q9UEW8)
# [20] = target: PIP4K2C (human) (UniProt Q8TBX8)
# [21] = target: EIF2AK2 (human) (UniProt P19525)
# Chain of EIF2AK2 (human) (P19525 whole entry, looked up): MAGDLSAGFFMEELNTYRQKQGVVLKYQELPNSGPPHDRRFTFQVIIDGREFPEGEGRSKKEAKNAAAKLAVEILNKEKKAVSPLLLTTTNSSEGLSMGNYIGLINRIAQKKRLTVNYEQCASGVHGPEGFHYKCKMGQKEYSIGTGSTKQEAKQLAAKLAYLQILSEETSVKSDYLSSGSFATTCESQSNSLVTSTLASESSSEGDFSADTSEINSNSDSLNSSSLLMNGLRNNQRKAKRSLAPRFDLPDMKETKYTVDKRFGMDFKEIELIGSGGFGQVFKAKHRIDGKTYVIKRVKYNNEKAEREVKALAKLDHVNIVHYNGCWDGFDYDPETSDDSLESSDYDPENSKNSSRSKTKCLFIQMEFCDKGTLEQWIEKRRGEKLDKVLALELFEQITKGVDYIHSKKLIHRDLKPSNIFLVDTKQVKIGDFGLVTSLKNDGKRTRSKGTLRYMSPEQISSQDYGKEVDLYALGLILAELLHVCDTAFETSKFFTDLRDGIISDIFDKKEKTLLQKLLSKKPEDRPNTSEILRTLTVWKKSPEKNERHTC
# [22] = target: MYO3B (human) (UniProt Q8WXR4)
# [23] = target: NUAK2 (human) (UniProt Q9H093)
# Chain of NUAK2 (human) (Q9H093 whole entry, looked up): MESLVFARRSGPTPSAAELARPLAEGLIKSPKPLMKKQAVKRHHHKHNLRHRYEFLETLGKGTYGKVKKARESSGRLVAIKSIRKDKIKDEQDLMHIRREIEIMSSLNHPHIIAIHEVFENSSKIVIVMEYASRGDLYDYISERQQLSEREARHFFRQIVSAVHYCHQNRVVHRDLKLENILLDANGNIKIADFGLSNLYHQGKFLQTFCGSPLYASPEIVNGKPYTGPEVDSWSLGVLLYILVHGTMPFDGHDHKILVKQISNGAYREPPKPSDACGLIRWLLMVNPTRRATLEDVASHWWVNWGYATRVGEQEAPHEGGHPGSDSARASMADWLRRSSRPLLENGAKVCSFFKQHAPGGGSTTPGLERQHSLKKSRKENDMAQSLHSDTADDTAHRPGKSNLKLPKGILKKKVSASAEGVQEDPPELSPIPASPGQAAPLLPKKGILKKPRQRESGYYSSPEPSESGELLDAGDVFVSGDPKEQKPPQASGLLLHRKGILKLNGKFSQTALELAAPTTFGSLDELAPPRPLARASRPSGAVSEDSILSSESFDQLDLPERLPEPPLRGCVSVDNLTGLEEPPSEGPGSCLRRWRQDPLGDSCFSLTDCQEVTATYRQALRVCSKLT
# [24] = target: SYK (human) (UniProt P43405)
# [25] = target: MAP2K7 (human) (UniProt O14733)
# [26] = target: MKNK2 (human) (UniProt Q9HBH9)
# [27] = target: NEK3 (human) (UniProt P51956)
# [28] = system: RET (human), P07949 [V804M]
# [29] = target: STK32C (human) (UniProt Q86UX6)
# [30] = target: TESK1 (human) (UniProt Q15569)
# [31] = target: MAPK13 (human) (UniProt O15264)
# Chain of MAPK13 (human) (O15264 whole entry, looked up): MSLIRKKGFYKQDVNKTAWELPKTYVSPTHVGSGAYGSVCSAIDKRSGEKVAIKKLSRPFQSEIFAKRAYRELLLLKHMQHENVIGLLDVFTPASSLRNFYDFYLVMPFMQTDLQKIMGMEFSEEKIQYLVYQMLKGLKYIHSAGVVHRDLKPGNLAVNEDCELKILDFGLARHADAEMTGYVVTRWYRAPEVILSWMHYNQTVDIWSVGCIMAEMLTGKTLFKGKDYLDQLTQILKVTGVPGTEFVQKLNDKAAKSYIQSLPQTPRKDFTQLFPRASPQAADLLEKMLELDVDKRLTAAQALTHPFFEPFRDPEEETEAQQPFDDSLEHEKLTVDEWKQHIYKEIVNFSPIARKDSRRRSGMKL
# [32] = target: RPS6KA5 KD2 (human) (UniProt O75582)
# Chain of RPS6KA5 KD2 (human) (O75582 whole entry, looked up): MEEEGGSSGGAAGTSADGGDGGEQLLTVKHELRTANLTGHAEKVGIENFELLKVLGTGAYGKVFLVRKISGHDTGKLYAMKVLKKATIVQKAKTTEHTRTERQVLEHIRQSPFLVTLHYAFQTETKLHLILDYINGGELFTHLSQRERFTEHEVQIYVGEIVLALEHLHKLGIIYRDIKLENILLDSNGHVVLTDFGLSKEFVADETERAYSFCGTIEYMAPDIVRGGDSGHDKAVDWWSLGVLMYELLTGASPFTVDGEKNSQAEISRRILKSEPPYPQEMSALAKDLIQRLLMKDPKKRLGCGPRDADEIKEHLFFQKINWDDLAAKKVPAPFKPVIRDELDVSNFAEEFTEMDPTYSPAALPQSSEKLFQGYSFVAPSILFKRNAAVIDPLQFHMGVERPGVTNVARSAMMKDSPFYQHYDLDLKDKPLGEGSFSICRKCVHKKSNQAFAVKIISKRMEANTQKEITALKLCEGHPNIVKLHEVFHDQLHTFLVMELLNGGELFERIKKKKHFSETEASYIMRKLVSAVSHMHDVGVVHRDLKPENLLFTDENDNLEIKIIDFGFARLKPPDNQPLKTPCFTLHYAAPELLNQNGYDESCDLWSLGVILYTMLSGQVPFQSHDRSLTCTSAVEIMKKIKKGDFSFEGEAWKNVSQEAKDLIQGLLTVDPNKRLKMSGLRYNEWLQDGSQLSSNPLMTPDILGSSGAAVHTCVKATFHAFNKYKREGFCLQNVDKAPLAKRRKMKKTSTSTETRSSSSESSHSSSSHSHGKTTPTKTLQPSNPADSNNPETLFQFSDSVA
# [33] = target: ALK (human) (UniProt Q9UM73)
# [34] = target: NEK7 (human) (UniProt Q8TDX7)
# [35] = target: CSK (human) (UniProt P41240)
# [36] = system: PIK3CA (human), P42336 [H1047L]
# [37] = target: CDKL5 (human) (UniProt O76039)
# [38] = target: GSK3B (human) (UniProt P49841)
# Chain of GSK3B (human) (P49841 whole entry, looked up): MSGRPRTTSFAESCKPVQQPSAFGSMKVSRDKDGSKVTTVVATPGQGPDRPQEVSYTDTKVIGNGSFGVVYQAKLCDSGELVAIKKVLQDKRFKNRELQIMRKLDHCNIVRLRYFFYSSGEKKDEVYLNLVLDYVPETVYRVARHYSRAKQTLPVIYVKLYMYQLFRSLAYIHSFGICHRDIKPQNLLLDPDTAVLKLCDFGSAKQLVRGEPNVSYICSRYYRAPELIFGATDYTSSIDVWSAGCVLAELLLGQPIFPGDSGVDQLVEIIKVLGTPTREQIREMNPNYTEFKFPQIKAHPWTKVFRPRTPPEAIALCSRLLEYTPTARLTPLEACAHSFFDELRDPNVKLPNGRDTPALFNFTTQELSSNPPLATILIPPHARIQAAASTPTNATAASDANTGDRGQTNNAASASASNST
# [39] = target: CDK15 (human) (UniProt Q96Q40)
# [40] = target: STK33 (human) (UniProt Q9BYT3)
# [41] = target: TNK1 (human) (UniProt Q13470)
# Chain of RPS6KB1 (human) (P23443 whole entry, looked up): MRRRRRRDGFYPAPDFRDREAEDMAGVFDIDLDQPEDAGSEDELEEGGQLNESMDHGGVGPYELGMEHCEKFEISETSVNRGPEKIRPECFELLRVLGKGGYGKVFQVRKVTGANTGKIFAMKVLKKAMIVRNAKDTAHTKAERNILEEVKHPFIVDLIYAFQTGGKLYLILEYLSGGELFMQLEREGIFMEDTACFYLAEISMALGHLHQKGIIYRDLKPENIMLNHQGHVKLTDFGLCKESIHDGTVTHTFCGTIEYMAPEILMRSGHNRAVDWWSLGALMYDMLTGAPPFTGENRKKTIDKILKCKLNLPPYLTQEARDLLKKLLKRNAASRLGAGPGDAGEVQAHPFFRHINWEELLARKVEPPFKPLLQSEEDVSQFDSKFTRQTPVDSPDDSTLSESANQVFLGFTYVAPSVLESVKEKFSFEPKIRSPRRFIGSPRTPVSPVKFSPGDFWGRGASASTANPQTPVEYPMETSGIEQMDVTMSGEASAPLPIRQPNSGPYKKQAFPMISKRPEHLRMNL
# Chain of DAPK2 (human) (Q9UIK4 whole entry, looked up): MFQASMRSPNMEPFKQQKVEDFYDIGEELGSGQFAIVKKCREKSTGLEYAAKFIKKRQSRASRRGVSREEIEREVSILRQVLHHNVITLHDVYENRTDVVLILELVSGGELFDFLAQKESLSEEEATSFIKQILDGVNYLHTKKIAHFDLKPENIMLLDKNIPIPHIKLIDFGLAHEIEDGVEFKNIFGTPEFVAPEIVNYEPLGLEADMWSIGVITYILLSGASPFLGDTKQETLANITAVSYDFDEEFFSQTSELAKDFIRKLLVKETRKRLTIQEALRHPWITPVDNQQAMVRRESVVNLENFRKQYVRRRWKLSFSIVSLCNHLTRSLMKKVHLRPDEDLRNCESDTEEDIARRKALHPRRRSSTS
smiles,measurement,setting,value
COc1ccc(-c2ccc3c(N4CCOCC4)nc(N4C[C@@H](C)O[C@@H](C)C4)nc3n2)cc1CO,"kinase still bound, per cent of control",[1],97%
same,"kinase still bound, per cent of control",[2],98%
same,"kinase still bound, per cent of control",[3],100%
same,"kinase still bound, per cent of control",[4],97%
same,"kinase still bound, per cent of control",[5],80%
same,"kinase still bound, per cent of control",[6],100%
same,"kinase still bound, per cent of control",[7],91%
same,"kinase still bound, per cent of control",[8],89%
same,"kinase still bound, per cent of control",[9],100%
same,"kinase still bound, per cent of control",[10],100%
same,"kinase still bound, per cent of control",[11],79%
same,"kinase still bound, per cent of control",[12],88%
same,"kinase still bound, per cent of control",[13],100%
same,"kinase still bound, per cent of control",[14],95%
same,"kinase still bound, per cent of control",[15],98%
same,"kinase still bound, per cent of control",[16],77%
same,"kinase still bound, per cent of control",[17],85%
same,"kinase still bound, per cent of control",[18],97%
same,per cent of control,[19],100%
same,"kinase still bound, per cent of control",[20],87%
same,"kinase still bound, per cent of control",[21],100%
same,"kinase still bound, per cent of control",[22],100%
same,"kinase still bound, per cent of control",[23],100%
same,"kinase still bound, per cent of control",[24],100%
same,"kinase still bound, per cent of control",[25],100%
same,"kinase still bound, per cent of control",[26],75%
same,"kinase still bound, per cent of control",[27],61%
same,"kinase still bound, per cent of control",[28],94%
same,"kinase still bound, per cent of control",[29],87%
same,"kinase still bound, per cent of control",[30],98%
same,"kinase still bound, per cent of control",[31],71%
same,"kinase still bound, per cent of control",[32],100%
same,"kinase still bound, per cent of control",[33],100%
same,"kinase still bound, per cent of control",[34],100%
same,"kinase still bound, per cent of control",[35],77%
same,"kinase still bound, per cent of control",[36],26%
same,per cent of control,[37],77%
same,"kinase still bound, per cent of control",[38],100%
same,per cent of control,[39],95%
same,"kinase still bound, per cent of control",[40],95%
same,"kinase still bound, per cent of control",[41],100%

# From the kinase profiling compilation of Christmann-Franck et al. (2016)
